According to patent US20250313563A1, “GLYCOGEN SYNTHASE KINASE 3 INHIBITORS AND USES THEREOF” (The Broad Institute, Inc., priority 2022, published 2025):
Where two headings read alike, the source gives them in different places.

Key:
[1] = target: GSK3α (GST-full length GSK3α) (Homo sapiens (Human), UniProt P49840); assay: GSK3α TR-FRET kinase assay; assay type: biochemical
How it was run: (§1)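 IC50 came from the normalized 665/615 nm TR-FRET ratio plotted against log compound concentration. The Tb-labelled pSer641 antibody and streptavidin-d2 detected phosphorylation of biotinylated S645-primed glycogen synthase peptide (200 nM) by 1 nM full-length GST-kinase. ATP was 4 μM for α, 2 μM for β, or 1 mM.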

[2] = target: GSK3b (GST-full length GSK3b) (Homo sapiens (Human), UniProt P49841); assay: GSK3b TR-FRET kinase assay; assay type: biochemical
GSK3b (GST-full length GSK3b), sequence (P49841 whole entry): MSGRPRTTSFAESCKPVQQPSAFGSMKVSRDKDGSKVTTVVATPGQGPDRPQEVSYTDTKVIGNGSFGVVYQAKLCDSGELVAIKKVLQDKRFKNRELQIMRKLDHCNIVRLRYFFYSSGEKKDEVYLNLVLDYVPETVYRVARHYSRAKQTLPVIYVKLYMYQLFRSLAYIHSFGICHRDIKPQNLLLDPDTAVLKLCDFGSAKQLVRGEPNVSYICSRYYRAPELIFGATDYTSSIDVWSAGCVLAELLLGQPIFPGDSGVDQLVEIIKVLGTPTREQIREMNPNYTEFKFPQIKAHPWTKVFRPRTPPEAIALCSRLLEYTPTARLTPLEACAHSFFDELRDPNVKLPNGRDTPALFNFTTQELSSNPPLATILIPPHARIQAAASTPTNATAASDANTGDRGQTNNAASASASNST
How it was run: as §1

[3] = 1 nM GSK3α, 4 μM ATP, 30 minute preincubation, Table 16, read-out: GSK3-A TR-FRET BIOCHEMICAL (TR-FRET)
[4] = 1 nM GSK3b, 2 μM ATP, 30 minute preincubation, Table 16, read-out: GSK3-B TR-FRET BIOCHEMICAL (TR-FRET)
[5] = 1 nM GSK3α, 4 μM ATP, 30 minute preincubation, Table 16, read-out: GSK3-A TR-FRET BIOCHEMICAL (TR-FRET), IC50
[6] = 1 nM GSK3b, 2 μM ATP, 30 minute preincubation, Table 16, read-out: GSK3-B TR-FRET BIOCHEMICAL (TR-FRET), IC50
[7] = 1 nM GSK3α, 4 μM ATP, 30 minute preincubation, read-out: GSK3-A TR-FRET BIOCHEMICAL (TR-FRET), IC50
[8] = 1 nM GSK3b, 2 μM ATP, 30 minute preincubation, read-out: GSK3-B TR-FRET BIOCHEMICAL (TR-FRET), IC50
[9] = read-out: GSK3-A (TR-FRET 1 mM ATP), GMean, IC50, 1 mM ATP, geometric mean
[10] = read-out: GSK3-B (TR-FRET 1 mM ATP), GMean, IC50, 1 mM ATP, geometric mean

GSK3α (GST-full length GSK3α), sequence (P49840 whole entry): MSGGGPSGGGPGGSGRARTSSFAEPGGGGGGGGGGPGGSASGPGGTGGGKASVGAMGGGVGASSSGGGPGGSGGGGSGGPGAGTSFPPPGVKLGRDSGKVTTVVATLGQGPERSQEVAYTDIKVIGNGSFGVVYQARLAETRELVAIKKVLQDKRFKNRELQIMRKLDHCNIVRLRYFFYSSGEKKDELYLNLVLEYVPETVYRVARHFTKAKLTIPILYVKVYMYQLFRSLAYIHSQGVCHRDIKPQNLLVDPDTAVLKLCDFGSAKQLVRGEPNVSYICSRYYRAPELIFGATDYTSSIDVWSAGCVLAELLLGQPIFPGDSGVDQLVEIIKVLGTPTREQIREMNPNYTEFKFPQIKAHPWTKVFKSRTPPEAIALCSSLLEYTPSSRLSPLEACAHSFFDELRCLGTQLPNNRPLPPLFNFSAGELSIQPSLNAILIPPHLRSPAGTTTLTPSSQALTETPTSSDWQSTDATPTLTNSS

Structure (SMILES)	IC50 [1, 3] [nM]	IC50 [2, 4] [nM]	IC50 [1, 5] [nM]	IC50 [2, 6] [nM]	also measured
C[C@@H]1C[C@]2(CCN1S(=O)(=O)c1ccn(C)n1)C1=C(CC(C)(C)CC1=O)Nc1n[nH]cc12 [Compound 917160]	100 to 1000	100 to 1000			
C[C@@H]1C[C@@]2(CCN1S(=O)(=O)c1ccn(C)n1)C1=C(CC(C)(C)CC1=O)Nc1n[nH]cc12 [Compound 917161]	≤ 100	≤ 100			
CC[C@]1(c2cccc(N3CCCC[C@H]3C)c2)C2=C(CC(C)(C)CC2=O)Nc2n[nH]cc21 [Compound 917210]			> 5000	> 5000	
CCC1(c2cccc(Oc3cncnc3)c2)C2=C(CC(C)(C)CC2=O)Nc2n[nH]cc21 (centres unmarked) [Compound 917212]			≤ 100	100 to 1000	
CC1(C)CC(=O)C2=C(C1)Nc1n[nH]cc1C21Cc2ccccc21 (centres unmarked) [Compound 917226]			100 to 1000	100 to 1000	
CC1(C)CC(=O)C2=C(C1)Nc1n[nH]cc1C21COC2(CN(C(=O)c3ccccc3)C2)C1 (centres unmarked) [Compound 917231]					IC50 [1, 7]: ≤ 100 nM; IC50 [2, 8]: ≤ 100 nM
CC1(C)CC(=O)C2=C(C1)Nc1n[nH]cc1C21COC2(CN(C(=O)C3CCCC3)C2)C1 (centres unmarked) [Compound 917232]					IC50 [1, 7]: ≤ 100 nM; IC50 [2, 8]: ≤ 100 nM
CC[C@@]1(c2cccc(C(F)(F)F)c2)C2=C(CCN(C)C2=O)Nc2n[nH]cc21 [Compound 917282]					IC50 [1, 7]: ≤ 100 nM; IC50 [2, 8]: 100 to 1000 nM
CC[C@]1(c2cccc(C(F)(F)F)c2)C2=C(CCN(C)C2=O)Nc2n[nH]cc21 [Compound 917283]					IC50 [1, 7]: > 5000 nM; IC50 [2, 8]: > 5000 nM
CCC1(c2cccc(C(F)(F)F)c2)C2=C(CC(c3ccccc3)NC2=O)Nc2n[nH]cc21 (centres unmarked) [Compound 917284]					IC50 [1, 7]: 100 to 1000 nM; IC50 [2, 8]: 1000 to 5000 nM
CCC1(c2cccc(-c3ccnc(C)c3)c2)C2=C(CC(C)(C)CC2=O)Nc2n[nH]c(C(F)(F)F)c21 (centres unmarked) [Compound 917289]			100 to 1000	1000 to 5000	IC50 [1, 9]: > 5000 nM; IC50 [2, 10]: > 5000 nM
CCC1(c2cccc(-c3ccncc3)c2)C2=C(CC(C)(C)CC2=O)Nc2n[nH]c(C(F)(F)F)c21 (centres unmarked) [Compound 917292]			100 to 1000	100 to 1000	IC50 [1, 9]: > 5000 nM; IC50 [2, 10]: > 5000 nM
CCC1(c2cccc(C(F)(F)F)c2)C2=C(CN(C)C2=O)Nc2n[nH]cc21 (centres unmarked) [Compound 917294]	100 to 1000	1000 to 5000			
CCC1(c2cccc(C(F)(F)F)c2)C2=C(Nc3n[nH]cc31)C(C)NC2=O (centres unmarked) [Compound 917295]	100 to 1000	1000 to 5000			
CC[C@@]1(c2cccc(C(F)(F)F)c2)C2=C(Nc3n[nH]cc31)C(C)(C)N(C)C2=O [Compound 918251]	> 5000	> 5000			
COC(=O)C1CCC2(CC1)C1=C(CC(C)(C)CC1=O)Nc1n[nH]cc12 (centres unmarked) [Compound 918270]	100 to 1000	100 to 1000			
CCC1(c2cccc(S(=O)(=O)CCOC)c2)C2=C(CC(C)(C)CC2=O)Nc2n[nH]cc21 (centres unmarked) [Compound 918271]			≤ 100	≤ 100	
CCC1(c2cccc(N(C)c3ccc(C)nc3)c2)C2=C(CC(C)(C)CC2=O)Nc2n[nH]cc21 (centres unmarked) [Compound 918272]			100 to 1000	100 to 1000	
CCC1(c2cccc(S(=O)(=O)C3CCCCC3)c2)C2=C(CC(C)(C)CC2=O)Nc2n[nH]cc21 (centres unmarked) [Compound 918273]			≤ 100	≤ 100	
CCC1(c2cccc(N(C)c3cccc(F)n3)c2)C2=C(CC(C)(C)CC2=O)Nc2n[nH]cc21 (centres unmarked) [Compound 918274]			≤ 100	100 to 1000	
CC1(C)CC(=O)C2=C(C1)Nc1n[nH]cc1C21CN(S(=O)(=O)C2CCCCC2)C1 [Compound 918275]	≤ 100	≤ 100			
COc1cccc(S(=O)(=O)N2CC3(C2)C2=C(CC(C)(C)CC2=O)Nc2n[nH]cc23)c1 [Compound 918276]	≤ 100	≤ 100			
COC(=O)C1CCC2(CC1)C1=C(CC(C)(C)CC1=O)Nc1n[nH]cc12 (centres unmarked) [Compound 918277]	≤ 100	100 to 1000			
CC1(C)CC(=O)C2=C(C1)Nc1n[nH]cc1C21CN(S(=O)(=O)c2cccc(F)c2)C1 [Compound 918278]	≤ 100	≤ 100			
CCC1(c2cccc(N3CCOc4ncccc43)c2)C2=C(CC(C)(C)CC2=O)Nc2n[nH]cc21 (centres unmarked) [Compound 918279]			≤ 100	≤ 100	
CCC1(c2cccc(N3CCOc4ccccc43)c2)C2=C(CC(C)(C)CC2=O)Nc2n[nH]cc21 (centres unmarked) [Compound 918280]			≤ 100	≤ 100	
